Series [1] concerns NanoLuc-tagged PRDM9 (residues 135–285). In words: NanoLuciferase thermal shift assay (NALTSA) in HEK293T cells. The class given is cell-based, human. As to conditions: for Tm of PRDM9 in cells (NALTSA): 0.1% DMSO, DMSO control Tm 52 ± 0.3 °C; for ∆Tm (°C): Fig. 5b, replicates; for Normalized_Signal: Fig. 5a, independent replicates. Here is the method: Cells treated with 0.1% DMSO alone were used as a control.
Shown is the mean ± SEM of three biological replicates. Boxes indicate the mean values. P-values calculated using an unpaired Welch’s two-tailed t-test, *p-value = 0.017. Source data are provided as a Source Data file.
NALTSA assays were performed as previously described. Briefly, HEK293T cells were plated in 6-well plates at a density of 1.5 × 10^5 cells/mL. The following day, cells were transfected with 2 µg of C-terminally NanoLuc®-tagged PRDM9 (residues 135–285) with X-tremeGene HP DNA Transfection Reagent (Roche). Cells were incubated for 24 h, trypsinized and resuspended at 1.5 × 10^5 cells/mL in 1x PBS supplemented with protease inhibitors. Cell suspensions were incubated at 37 °C with 10 μM compound or 0.1% DMSO alone for 1 h. Sixty microliters of cells was dispensed per well of a 96-well PCR plate followed by heating across a temperature gradient for 3 min on a Mastercycler® thermal cycler (Eppendorf). After heating, samples were transferred to a 96-well white plastic plate (Corning) and Glo® Substrate (Promega) was added to each well at 1:1000 final dilution. NanoLuciferase signal was read at 450 nm (filter: 450 nm/BP 80 nm) on a CLARIOstar microplate reader (Mandel).

The next series has as its system HEK293T cells. Kind of series: Cell growth, IncuCyte ZOOM cell number. The class given is cell-based. As to conditions: for HEK293T cell growth, toxicity (in words): 24 h of treatment; for HEK293T cytotoxicity (in words): 4 days of treatment; for Cell growth (Cell#): technical replicates. How it is done: HEK293T or MCF7 cells were seeded on 96-well plates and the following day treated with compounds for indicated time. Cell number was determined with Vybrant® DyeCycle™ Green using IncuCyte™ ZOOM live cell imaging device (Essen Bioscence) and analyzed with IncuCyte™ ZOOM (2015A) software.
(top graphs) and MCF7 cells (bottom graph). Cells were treated with compounds for 2 and 4 days or 5 days in case of MCF7. Cell number was measured using IncuCyte™ ZOOM live cell imaging device. The results are MEAN +/- SEM, n=3 (technical replicates). Source data are provided as a Source Data file.
(1 picture or pasted object on this page, not shown here)

For a further series, the target named is T1, DNMT1 (Homo sapiens, UniProt P26358).
T1 construct: purchased Structural Genomics Consortium (SGC Toronto) in-house methyltransferase panel
In words: Methyltransferase selectivity assay (SPA). Type of series: biochemical. How it is done:
(§1) Selectivity against methyltransferases were determined as described previously. Details of the assays are described in the supplementary methods.
(§2) Methyltransferase selectivity assay1
The effect of chemical probes and negative controls on the methyltransferase activities of protein, DNA and RNA methyltransferases was tested by radiometric assays using 3H-SAM. For proteins such as MLL1 trimeric, MLL3 pentameric, EZH1 (PRC2) pentameric, and EZH2 (PRC2) trimeric complexes, as well as G9a, GLP, SUV39H1, SUV39H2, SUV420H1, SUV420H2, SETD2, SETD8, SETDB1, SETD7, PRMT1, PRMT3, PRMT4, PRMT5/ MEP50 complex, PRMT6, PRMT7, PRMT8, PRMT9, PRDM9, SMYD2, SMYD3, DNMT1, and BCDIN3D the incorporation of a tritium-labeled methyl group into biotinylated substrate was monitored using scintillation proximity assay (SPA). Briefly, a 10 µL reaction containing 3H-SAM and substrate at concentrations close to the apparent Km values for each enzyme (balanced conditions) was prepared. The reactions were quenched with 10 µL of 7.5 M guanidine hydrochloride; 180 µL of 20 mM Tris buffer (pH 8.0) were added, and the mixture was transferred to a 96-well FlashPlate and incubated for 1 h. The counts per minute (CPM) was measured on a TopCount plate reader. The CPM in the absence of compound or enzyme was defined as 100% activity and background (0%), respectively, for each dataset. For DNMT1, the double-stranded DNA substrate was prepared by annealing two complementary strands (biotinylated forward strand: B-[…] and reverse strand: […]

The target in a further series is T2, DNMT3B/3L (Homo sapiens, UniProt Q9UBC3).
T2 construct: purchased Structural Genomics Consortium (SGC Toronto) in-house methyltransferase panel
In words: Methyltransferase selectivity assay (filter-based). Type of series: biochemical. To be noted: for activity at 1 µM: 1µM compound; for Activity % / activity at 10 µM: 10µM compound; for Activity %: Exp1, Exp2, 10 µM. How it is done:
as §1, §2
The effect of chemical probes and negative controls on the methyltransferase activities of protein, DNA and RNA methyltransferases was tested by radiometric assays using 3H-SAM. […]
The counts per minute (CPM) was measured on a TopCount plate reader. The CPM in the absence of compound or enzyme was defined as 100% activity and background (0%), respectively, for each dataset. […]
For proteins which were tested with nucleosome as substrate such as DOT1L, NSD1, NSD2, NSD3, and ASH1L, or unbiotinylated Poly(2′-deoxyinosinic-2′-deoxycytidylic acid) (Cat# 81349-500UG, Sigma Aldrich) such as DNMT3A/3L, and DNMT3B/3L, a filter-based assay was used. In this assay, a trichloroacetic acid (TCA) protein precipitation protocol was employed. A 10 µL reaction mixture was incubated at 23°C for 1 h, followed by addition of 50 µL of 10% TCA. The mixture was transferred to filter plates (Millipore, Billerica, MA, USA) that were centrifuged at 2000 rpm (Allegra X-15R; Beckman Coulter, Brea, CA, USA) for 2 min. Samples were washed twice with 10% TCA and once with ethanol (180 µL), and centrifuged. After drying, 100 µL MicroScint-O (Perkin Elmer) was added to each well and the plates were centrifuged to remove the liquid. A 70 µL volume of MicroScint-O was added and the CPM was measured with a TopCount plate reader.

[2] abbreviates: HEK293, 2 day treatement, 10 µM.
Where [3] appears, read: HEK293, 4 day treatement, 0.3 µM.
The mark [4] stands for this setting: HEK293, 4 day treatement, 10 µM.
[5] abbreviates: 10µM compound, Exp1, Exp2, 10 µM.
The mark [6] stands for this setting: Exp1, Exp2, read-out: Activity %.

Results on 3 compounds are retold here after article PMC6917776, “Discovery of a chemical probe for PRDM9” (Nature Communications, 2019).

“And” between values parts separate entries of the source, which are not always exact repeats. Identical values can stand only once. Like-named read-outs stand apart in the source and are kept apart here.

T1 sequence (P26358 whole entry): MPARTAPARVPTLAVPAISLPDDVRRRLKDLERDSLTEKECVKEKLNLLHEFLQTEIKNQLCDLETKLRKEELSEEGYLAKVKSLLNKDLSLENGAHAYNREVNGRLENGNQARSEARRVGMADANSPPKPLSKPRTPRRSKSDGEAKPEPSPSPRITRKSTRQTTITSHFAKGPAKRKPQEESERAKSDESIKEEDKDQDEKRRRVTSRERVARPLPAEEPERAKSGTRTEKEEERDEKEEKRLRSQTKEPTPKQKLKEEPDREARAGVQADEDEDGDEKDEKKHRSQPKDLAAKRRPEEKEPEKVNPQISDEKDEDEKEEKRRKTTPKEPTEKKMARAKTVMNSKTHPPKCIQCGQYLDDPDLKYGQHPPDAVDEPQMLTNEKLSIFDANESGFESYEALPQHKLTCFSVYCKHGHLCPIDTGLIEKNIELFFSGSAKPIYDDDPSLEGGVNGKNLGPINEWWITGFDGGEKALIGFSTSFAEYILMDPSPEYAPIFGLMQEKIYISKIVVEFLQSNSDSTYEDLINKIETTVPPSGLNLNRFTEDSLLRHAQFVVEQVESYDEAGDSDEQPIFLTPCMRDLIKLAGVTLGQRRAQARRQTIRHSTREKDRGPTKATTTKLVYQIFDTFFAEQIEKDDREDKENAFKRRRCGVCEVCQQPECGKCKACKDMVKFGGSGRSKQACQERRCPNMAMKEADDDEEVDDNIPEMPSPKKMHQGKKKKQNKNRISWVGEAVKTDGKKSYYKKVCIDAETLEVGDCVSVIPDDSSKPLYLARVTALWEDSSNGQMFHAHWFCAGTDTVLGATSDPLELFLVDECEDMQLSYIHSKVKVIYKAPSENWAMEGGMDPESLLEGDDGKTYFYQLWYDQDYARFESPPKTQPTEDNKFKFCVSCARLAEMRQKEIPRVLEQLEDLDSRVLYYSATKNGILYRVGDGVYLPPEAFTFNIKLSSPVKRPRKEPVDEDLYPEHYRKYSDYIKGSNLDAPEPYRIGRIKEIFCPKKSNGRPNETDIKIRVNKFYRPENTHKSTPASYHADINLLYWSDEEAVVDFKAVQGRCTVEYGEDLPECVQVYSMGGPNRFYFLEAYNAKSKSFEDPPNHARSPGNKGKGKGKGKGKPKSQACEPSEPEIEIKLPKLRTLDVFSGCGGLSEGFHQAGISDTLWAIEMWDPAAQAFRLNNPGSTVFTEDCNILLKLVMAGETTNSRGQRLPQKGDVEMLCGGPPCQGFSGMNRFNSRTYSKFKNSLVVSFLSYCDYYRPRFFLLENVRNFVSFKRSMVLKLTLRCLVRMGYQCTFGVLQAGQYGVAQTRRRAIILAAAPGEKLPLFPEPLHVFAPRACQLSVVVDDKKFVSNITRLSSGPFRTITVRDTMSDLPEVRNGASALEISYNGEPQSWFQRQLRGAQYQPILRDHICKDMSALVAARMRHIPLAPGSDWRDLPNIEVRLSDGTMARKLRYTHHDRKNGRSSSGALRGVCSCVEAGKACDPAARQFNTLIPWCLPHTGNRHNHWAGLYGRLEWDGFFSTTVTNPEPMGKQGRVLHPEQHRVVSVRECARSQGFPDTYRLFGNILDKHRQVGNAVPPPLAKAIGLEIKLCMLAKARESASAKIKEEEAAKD

On to `COc1cc(OC)cc(-c2noc(N3CCN(C)C4(CCN(c5ccnc(C)c5)CC4)C3)n2)c1` [MRK-740], for which the “Tm of PRDM9 in cells (NALTSA)” value in series [1] (10 µM compound, 1 h) was found to be 54 ± 0.2 °C. The “∆Tm of PRDM9 in cells (NALTSA)” value in series [1] (10 µM compound, 1 h, versus DMSO) turned out to be 2 °C. For the same compound, in series [1], the “∆Tm (°C)” value is 2.141 °C and 1.141 °C and 2.73 °C. The Normalized_Signal in series [1] (Temperature 41.9 °C) was 1; in series [1] (Temperature 42.4 °C), 1.082 and 0.9671 and 1.026; in series [1] (Temperature 43.6 °C), 1.044 and 1.056 and 1.097; in series [1] (Temperature 45.5 °C), 1.058 and 1.067 and 0.973; in series [1] (Temperature 47.8 °C), 1.041 and 0.9815 and 0.9273; in series [1] (Temperature 50.4 °C), 0.9323 and 0.8369 and 0.6881. For the same compound, the Normalized_Signal is 0.6552 and 0.5708 and 0.5431 in series [1] (Temperature 53.1 °C); 0.4561 and 0.4452 and 0.3801 in series [1] (Temperature 55.8 °C); 0.3081 and 0.2709 and 0.2289 in series [1] (Temperature 58.1 °C); 0.1968 and 0.1844 and 0.1466 in series [1] (Temperature 60.1 °C); 0.1518 and 0.1586 and 0.1205 in series [1] (Temperature 61.5 °C); 0.1417 and 0.1648 and 0.1053 in series [1] (Temperature 62.1 °C). The “HEK293T cell growth, toxicity (in words)” value in the series on HEK293T cells (10 µM) is reported as “some toxicity”. The “HEK293T cytotoxicity (in words)” value in the series with HEK293T cells (10 µM) is “cytotoxicity was observed”. Besides, the “Cell growth (Cell#)” value was 84.8973 % control and 124.131 % control and 116.53 % control in the series with HEK293T cells (HEK293, 2 day treatement, 1 µM); 73.843 % control and 124.215 % control and 124.008 % control in the series with HEK293T cells (HEK293, 2 day treatement, 3 µM); 68.7811 % control and 110.358 % control and 122.96 % control in the series on HEK293T cells (HEK293, 2 day treatement, 5 µM); 55.0249 % control and 90.6823 % control and 84.1686 % control in the series on HEK293T cells (setting [2]); 115.326 % control and 111.309 % control and 103.491 % control in the series with HEK293T cells (setting [3]); 115.93 % control and 116.134 % control and 111.504 % control in the series with HEK293T cells (HEK293, 4 day treatement, 1 µM). Also, the “Cell growth (Cell#)” value is 115.346 % control and 109.669 % control and 118.771 % control with HEK293T cells (HEK293, 4 day treatement, 3 µM); 47.3939 % control and 45.1607 % control and 39.6851 % control in the series with HEK293T cells (setting [4]). Also, the Activity % was 95% at DNMT1 (1µM compound, Exp1, Exp2, 1 µM); 101% on DNMT1 (setting [5]); 90% at DNMT3B/3L. For the same compound, the activity at 1 µM is 98% on DNMT1 (1µM compound, Exp1, Exp2, read-out: Activity %) and 100% at DNMT3B/3L (setting [6]). For the same compound, the activity at 10 µM was found to be 99% at DNMT1 (10µM compound, Exp1, Exp2, read-out: Activity %) and 82% on DNMT3B/3L (setting [6]).

In the case of `COc1cc(OC)cc(-c2noc(N3CCN(C)C4(CCN(c5ccccc5)CC4)C3)n2)c1` [MRK-740-NC], the “Tm of PRDM9 in cells (NALTSA)” value in series [1] (10 µM compound, 1 h) was determined as 51.6 ± 0.3 °C. Besides, the “∆Tm (°C)” value in series [1] was 0.2175 °C and -0.9409 °C and -0.4232 °C. For the same compound, the Normalized_Signal is 1 in series [1] (Temperature 41.9 °C); 0.9008 and 0.9609 and 1.092 in series [1] (Temperature 42.4 °C); 0.8855 and 0.9556 and 0.9997 in series [1] (Temperature 43.6 °C); 0.873 and 0.8101 and 0.9461 in series [1] (Temperature 45.5 °C); 0.7977 and 0.6572 and 0.8375 in series [1] (Temperature 47.8 °C); 0.6003 and 0.5454 and 0.5984 in series [1] (Temperature 50.4 °C). In addition, the Normalized_Signal in series [1] (Temperature 53.1 °C) was 0.5018 and 0.4469 and 0.4089; in series [1] (Temperature 55.8 °C) it was 0.3624 and 0.3667 and 0.3326; in series [1] (Temperature 58.1 °C), 0.3387 and 0.2885 and 0.2383; in series [1] (Temperature 60.1 °C) it was 0.2284 and 0.1546 and 0.1556; in series [1] (Temperature 61.5 °C), 0.2018 and 0.1276 and 0.1034; in series [1] (Temperature 62.1 °C) it was 0.1991 and 0.1124 and 0.111. Moreover, the “HEK293T cell growth, toxicity (in words)” value in the series on HEK293T cells (10 µM) is recorded as “some toxicity”. Also, the “HEK293T cytotoxicity (in words)” value with HEK293T cells (10 µM) is “cytotoxicity was observed”. For the same compound, the “Cell growth (Cell#)” value in the series with HEK293T cells (HEK293, 2 day treatement, 1 µM) is 131.284 % control and 117.713 % control and 90.9177 % control; in the series on HEK293T cells (HEK293, 2 day treatement, 3 µM), 132.069 % control and 120.302 % control and 91.1588 % control; in the series on HEK293T cells (HEK293, 2 day treatement, 5 µM), 115.543 % control and 108.951 % control and 80.3231 % control; in the series with HEK293T cells (setting [2]), 46.5996 % control and 35.6574 % control and 30.4049 % control; in the series with HEK293T cells (setting [3]), 101.286 % control and 102.18 % control and 103.656 % control; in the series on HEK293T cells (HEK293, 4 day treatement, 1 µM) it was 105.145 % control and 104.341 % control and 101.342 % control. Moreover, the “Cell growth (Cell#)” value was 105.432 % control and 102.893 % control and 103.306 % control with HEK293T cells (HEK293, 4 day treatement, 3 µM); 42.1082 % control and 39.7636 % control and 39.5419 % control in the series with HEK293T cells (setting [4]).

Turning to `COc1cc(OC)cc(-c2noc(N3CCN(C)C4(CCN(c5ccccc5)CC4)C3)n2)c1` [MRK-740 -NC], the activity at 1 µM was 105% on DNMT1 (1µM compound, Exp1, Exp2) and 101% at DNMT3B/3L (Exp1, Exp2). The activity at 10 µM at DNMT1 (10µM compound, Exp1, Exp2) is 102%; on DNMT3B/3L (Exp1, Exp2), 99%. For the same compound, the Activity % was found to be 98% at DNMT1 (setting [5]) and 97% at DNMT3B/3L.
